Columns and labels:
Assay type in all cases: in vivo
Set-up in all cases: key: 0: there is no or little difference in the degree of growth between treated plants and untreated plants at the time of observation; 1: evaluated at 6 levels using the indices of 0 to 5; 2: evaluated at 6 levels using the indices of 0 to 5; 3: evaluated at 6 levels using the indices of 0 to 5; The herbicidal values of “4” and “5” show excellent herbicidal activity; 5: the test plants die completely or their growth is completely inhibited
[1] = tested on: Alopecurus myosuroides; assay: Test Example 1, soil application, pot test in greenhouse; settings: 34 days after application
Excerpt: (§1) The herbicidal values of “4” and “5” show excellent herbicidal activity. Each of plastic pots (measuring 22 cm in diameter and 19 cm in height) was filled with upland field soil and sown with Lolium multiflorum and Alopecurus myosuroides. Each of the predetermined amounts of a flumioxazin formulation product (trade name: Valor_SX, manufactured by Valent USA Corporation), a sulfosulfuron formulation product (trade name: Monitor, manufactured by Monsanto Company) and a mixture of the flumioxazin formulation product and the sulfosulfuron formulation product was diluted with water, and then the dilution was uniformly sprayed over the soil surface by a small-sized sprayer. After the treatment, the weeds were grown in a greenhouse, and the herbicidal activity against the weeds was evaluated at 34 days after application.

[2] = tested on: Lolium multiflorum; assay: as above; settings: 34 days after application
Excerpt: as §1

[3] = tested on: Solidago altissima; assay: Test Example 2, foliar application, pot test in greenhouse; settings: 29 days after treatment
Excerpt: The herbicidal values of “4” and “5” show excellent herbicidal activity. Each of plastic pots (measuring 12 cm in diameter and 8 cm in height) was filled with upland field soil and Solidago altissima collected from outdoors was transplanted to the plastic pot and grown in a greenhouse for 31 days. Each of the predetermined amounts of a flumioxazin formulation product (trade name: Valor_SX, manufactured by Valent USA Corporation), a sulfosulfuron formulation product (trade name: Monitor, manufactured by Monsanto Company) and a mixture of the flumioxazin formulation product and the sulfosulfuron formulation product was diluted with water, and then the dilution was uniformly sprayed over each plant body from above by a small-sized sprayer. After the treatment, the weeds were grown in a greenhouse for 29 days, and then the herbicidal activity against the weeds was evaluated.

| SMILES | Herbicidal activity Alopecurus myosuroides ([1]; active ingredient 10 g/ha) | Herbicidal activity Alopecurus myosuroides ([1]; active ingredient 20 g/ha) | Herbicidal activity Lolium multiflorum ([2]; active ingredient 10 g/ha) | Herbicidal activity Lolium multiflorum ([2]; active ingredient 20 g/ha) | Herbicidal activity Solidago altissima ([3]; active ingredient 60 g/ha) | Herbicidal activity Solidago altissima ([3]; active ingredient 120 g/ha) | Herbicidal activity Alopecurus myosuroides ([1]; active ingredient 40 g/ha) | Herbicidal activity Lolium multiflorum ([2]; active ingredient 40 g/ha) | Herbicidal activity Solidago altissima ([3]; active ingredient 40 g/ha) |
| --- | --- | --- | --- | --- | --- | --- | --- | --- | --- |
| C#CCN1C(=O)COc2cc(F)c(N3C(=O)C4=C(CCCC4)C3=O)cc21 [Flumioxazin, N-(7-fluoro-3,4-dihydro-3-oxo-4-prop-2-ynyl-2H-1,4-benzeoxazin-6-yl)cyclohex-1-ene-1,2-dicarboxamide] | 1 | 4 | 0 | 1 | 0 | 1 | – | – | – |
| CCS(=O)(=O)c1nc2ccccn2c1S(=O)(=O)NC(=O)Nc1nc(OC)cc(OC)n1 [Sulfosulfuron, 1-(4,6-dimethoxypyrimidin-2-yl)-3-(2-ethylsulfonylimidazo[1,2-a]pyridin-3-ylsulfonyl)urea] | – | 0 | – | 0 | – | – | 2 | 0 | 2 |
